Data set [1] concerns the target T1, human progesterone receptor A (Homo sapiens, UniProt P06401).
T1 construct: expressed in transfected cells; host or cells: SK-N-MC human neuroblastoma cells, stably transfected with pRChPR-A-neo and pMMTV-LUC
T1 sequence (P06401 1-769 isoform P06401-2): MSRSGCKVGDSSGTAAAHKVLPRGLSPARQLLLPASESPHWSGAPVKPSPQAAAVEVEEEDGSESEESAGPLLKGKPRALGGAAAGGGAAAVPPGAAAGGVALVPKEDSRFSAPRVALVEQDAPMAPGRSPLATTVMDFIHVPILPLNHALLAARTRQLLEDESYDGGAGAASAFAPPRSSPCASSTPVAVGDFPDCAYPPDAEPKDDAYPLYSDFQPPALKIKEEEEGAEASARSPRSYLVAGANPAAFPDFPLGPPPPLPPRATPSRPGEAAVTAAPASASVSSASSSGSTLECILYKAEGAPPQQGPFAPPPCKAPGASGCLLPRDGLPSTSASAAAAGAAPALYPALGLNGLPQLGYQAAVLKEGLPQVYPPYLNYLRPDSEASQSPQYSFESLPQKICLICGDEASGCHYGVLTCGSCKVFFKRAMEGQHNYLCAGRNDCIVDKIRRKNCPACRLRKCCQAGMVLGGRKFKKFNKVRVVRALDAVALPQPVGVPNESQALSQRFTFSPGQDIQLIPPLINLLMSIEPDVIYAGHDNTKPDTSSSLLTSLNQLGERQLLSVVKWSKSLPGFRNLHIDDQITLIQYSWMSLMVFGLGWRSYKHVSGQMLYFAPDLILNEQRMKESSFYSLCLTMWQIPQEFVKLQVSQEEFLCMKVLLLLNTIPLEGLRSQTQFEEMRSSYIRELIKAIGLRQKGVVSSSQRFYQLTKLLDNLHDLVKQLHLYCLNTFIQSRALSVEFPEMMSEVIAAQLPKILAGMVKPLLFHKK
The data set is described as follows: Progesterone receptor-antagonistic action in stably transfected SK-N-MC cells, MMTV-LUC reporter (PR-A). As to conditions: antagonistic potency vs 0.1 nmol/l promegestone, 24 hours. It is filed as cell-based. The procedure, abridged: (§1)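 Stably transfected SK-N-MC cells express human PR-B or PR-A plus MMTV-LUC. For antagonism they were co-treated with 0.1 nmol/l promegestone and compound (0.01 nmol/l upward) for 24 hours. Luciferase in lysates was read as RLU and reported as % efficacy and IC50.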

Data set [2] concerns the target T2, human progesterone receptor B (Homo sapiens, UniProt P06401).
T2 construct: expressed in transfected cells; host or cells: SK-N-MC human neuroblastoma cells, stably transfected with pRChPR-B-neo and pMMTV-LUC
T2 sequence (P06401 1-933): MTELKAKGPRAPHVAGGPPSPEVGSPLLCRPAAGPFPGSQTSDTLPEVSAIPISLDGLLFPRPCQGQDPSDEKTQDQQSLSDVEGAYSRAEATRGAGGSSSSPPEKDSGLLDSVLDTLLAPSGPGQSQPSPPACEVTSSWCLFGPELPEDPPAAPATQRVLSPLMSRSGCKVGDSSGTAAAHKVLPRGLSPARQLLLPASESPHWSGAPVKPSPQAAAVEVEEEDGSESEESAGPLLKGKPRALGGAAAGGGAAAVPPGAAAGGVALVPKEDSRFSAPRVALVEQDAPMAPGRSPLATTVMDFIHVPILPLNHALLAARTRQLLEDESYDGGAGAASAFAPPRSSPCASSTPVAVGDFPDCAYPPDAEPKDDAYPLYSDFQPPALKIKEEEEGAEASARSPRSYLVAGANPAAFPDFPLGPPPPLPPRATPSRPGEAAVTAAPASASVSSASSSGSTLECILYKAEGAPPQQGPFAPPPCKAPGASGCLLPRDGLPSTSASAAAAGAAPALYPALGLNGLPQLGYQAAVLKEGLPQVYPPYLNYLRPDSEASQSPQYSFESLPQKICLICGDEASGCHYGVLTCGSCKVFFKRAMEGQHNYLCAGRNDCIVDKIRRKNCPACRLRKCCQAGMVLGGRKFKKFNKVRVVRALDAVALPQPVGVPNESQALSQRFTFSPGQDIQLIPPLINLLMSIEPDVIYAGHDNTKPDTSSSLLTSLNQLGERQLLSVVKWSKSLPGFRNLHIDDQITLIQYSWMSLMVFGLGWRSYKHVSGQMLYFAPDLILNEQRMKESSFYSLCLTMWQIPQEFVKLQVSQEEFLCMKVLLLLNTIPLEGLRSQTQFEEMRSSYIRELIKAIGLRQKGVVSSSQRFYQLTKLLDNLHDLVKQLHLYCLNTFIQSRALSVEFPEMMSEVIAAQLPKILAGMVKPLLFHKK
Put plainly: Progesterone receptor-antagonistic action in stably transfected SK-N-MC cells, MMTV-LUC reporter (PR-B). It counts as cell-based. Conditions: antagonistic potency vs 0.1 nmol/l promegestone, 24 hours. The procedure, abridged: as §1

The nature of data set [3]: Metabolic stability in rat liver microsomes. It is filed as in vitro ADME. As to conditions: calculated from liver microsome clearance. The protocol:
Determination of Metabolic Stability in Human and Rat Liver Microsomes
The incubations were conducted with 2.4 ml of HLM solution (protein content 0.5 mg/ml), 30 μl of the test compound (final concentration 1 μM) and 0.6 ml of the cofactor mixture (=NADPH-generating system composed of 3 IU glucose-6-phosphate dehydrogenase, 14.6 mg glucose-6-phosphate, 1.2 mg NADP) at 37° C. in 100 mM phosphate buffer at pH 7.4. Samples were taken at 6 time points (2-60 min) and precipitated with an equal volume of methanol, and the recovery of the test substances used in the supernatant was determined by LC-MS/MS analysis. The half-life of substance degradation determined therefrom was used to calculate what is called the intrinsic clearance of the substance in the liver microsome preparation. […] In addition, under the assumptions that (i) absorption of the test substance is 100%, and (ii) the first pass is completely reflected by liver microsome metabolism, a maximum oral bioavailability (Fmax) was calculated.

We go through seven compounds from patent US9206219B2, “17-hydroxy-17-pentafluorethyl-estra-4,9(10)-dien-11-aryl derivatives, methods for the production thereof and the use thereof for treating diseases” (Bayer Intellectual Property GmbH, priority 2009, dated 2015).

Regarding `C[C@]12C[C@H](c3ccc(CCc4ccccn4)cc3)C3=C4CCC(=O)C=C4CC[C@H]3[C@@H]1CC[C@@]2(O)C(F)(F)C(F)(F)F` [Example 2, (8S,11R,13S,14S,17S)-17-hydroxy-13-methyl-17-pentafluoroethyl-11-[4-(2-pyridin-2-ylethyl)phenyl]-1,2,6,7,8,11,12,13,14,15,16,17-dodecahydrocyclopenta[a]phenanthren-3-one], the IC50 (in general, the midpoint of a concentration-inhibition curve) in data set [1] turned out to be 0.095 nM; in data set [2], 0.11 nM. Besides, the “Predicted Fmax (maximum oral bioavailability)” value (“Predicted Fmax” for short) in data set [3] is recorded as 18%.

As to `Cc1nc(CCc2ccc([C@H]3C[C@@]4(C)[C@@H](CC[C@@]4(O)C(F)(F)C(F)(F)F)[C@@H]4CCC5=CC(=O)CCC5=C43)cc2)cs1` [Example 3, (8S,11R,13S,14S,17S)-17-hydroxy-13-methyl-11-{4-[2-(2-methylthiazol-4-yl)ethyl]phenyl}-17-pentafluoroethyl-1,2,6,7,8,11,12,13,14,15,16,17-dodecahydrocyclopenta[a]phenanthren-3-one], the values for the IC50 in data set [1] and in data set [2] were 0.09 nM and 0.04 nM, respectively. Also, in data set [3], the “Predicted Fmax” value is 15%.

For `C[C@]12C[C@H](c3ccc(CCc4cccnc4)cc3)C3=C4CCC(=O)C=C4CC[C@H]3[C@@H]1CC[C@@]2(O)C(F)(F)C(F)(F)F` [Example 7, (8S,11R,13S,14S,17S)-17-hydroxy-13-methyl-17-pentafluoroethyl-11-[4-(2-pyridin-3-ylethyl)phenyl]-1,2,6,7,8,11,12,13,14,15,16,17-dodecahydrocyclopenta[a]phenanthren-3-one], the IC50 in data set [1] came to 0.08 nM; in data set [2], 0.09 nM. In data set [3], the “Predicted Fmax” value is 20%.

For the compound `C[C@]12C[C@H](c3ccc(CCc4ccncc4)cc3)C3=C4CCC(=O)C=C4CC[C@H]3[C@@H]1CC[C@@]2(O)C(F)(F)C(F)(F)F` [Example 8, (8S,11R,13S,14S,17S)-17-hydroxy-13-methyl-17-pentafluoroethyl-11-[4-(2-pyridin-4-ylethyl)phenyl]-1,2,6,7,8,11,12,13,14,15,16,17-dodecahydrocyclopenta[a]phenanthren-3-one], the 50% inhibitory concentration (IC50) in data set [1] worked out at 0.08 nM; in data set [2], 0.09 nM. The “Predicted Fmax” value in data set [3] is 19%.

As for `C[C@]12C[C@H](c3ccc(CCC#N)cc3)C3=C4CCC(=O)C=C4CC[C@H]3[C@@H]1CC[C@@]2(O)C(F)(F)C(F)(F)F` [Example 9, 3-[4-((8S,11R,13S,14S,17S)-17-hydroxy-13-methyl-3-oxo-17-pentafluoroethyl-2,3,6,7,8,11,12,13,14,15,16,17-dodecahydro-1H-cyclopenta[a]phenanthren-11-yl)phenyl]propionitrile], the IC50 in data set [1] came out at 0.06 nM; in data set [2] it was 0.1 nM. Moreover, the “Predicted Fmax” value in data set [3] was 4.9%.

As to `C[C@]12C[C@H](c3ccc(COC(=O)NCc4ccccc4)cc3)C3=C4CCC(=O)C=C4CC[C@H]3[C@@H]1CC[C@@]2(O)C(F)(F)C(F)(F)F` [Example 56, benzylcarbamic acid 4-((8S,11R,13S,14S,17S)-17-hydroxy-13-methyl-3-oxo-17-pentafluoroethyl-2,3,6,7,8,11,12,13,14,15,16,17-dodecahydro-1H-cyclopenta[a]phenanthren-11-yl)benzyl ester], the results for the IC50 in data set [1] and in data set [2] were 0.2 nM and 0.3 nM, respectively.

On to `CCOC(=O)CCNC(=O)OCc1ccc([C@H]2C[C@@]3(C)[C@@H](CC[C@@]3(O)C(F)(F)C(F)(F)F)[C@@H]3CCC4=CC(=O)CCC4=C32)cc1` [Example 57, 3-[4-((8S,11R,13S,14S,17S)-17-hydroxy-13-methyl-3-oxo-17-pentafluoroethyl-2,3,6,7,8,11,12,13,14,15,16,17-dodecahydro-1H-cyclopenta[a]phenanthren-11-yl)benzyloxycarbonylamino]propionic acid ethyl ester], for which the half-maximal inhibitory concentration (IC50) in data set [1] and in data set [2] was 0.1 nM throughout.
